Experimental data published in patent US20240299352A1, “COMBINATION THERAPIES WITH SETD2 INHIBITORS” (Epizyme, Inc., priority 2021, published 2024).

Legend:
[1] = test system: diffuse large B-cell lymphoma (DLBCL) cell lines; experiment: Pre-treatment model combination study with Cpd. No. 15 (7 days pre-treatment, then combination; Table G), CellTiter-Glo viability, Loewe Volume; settings: 7 days pre-treatment with Cpd. No. 15, then combination; for Combination effect with Cpd. No. 15 (Loewe Volume class), Farage: cell line Farage (Cat. No. CRL-2630); for Combination effect with Cpd. No. 15 (Loewe Volume class), HT: cell line HT (Cat. No. CRL-2631); for Combination effect with Cpd. No. 15 (Loewe Volume class), OCILY7: cell line OCILY7 (Cat. No. ACC 688); for Combination effect with Cpd. No. 15 (Loewe Volume class), SUDHL4: cell line SUDHL4 (Cat. No. ACC 495); for Combination effect with Cpd. No. 15 (Loewe Volume class), WILL2: cell line WILL2 (Cat. No. ACC 652)
[2] = test system: GRANTA519; experiment: Co-treatment combination study with Cpd. No. 15, CellTiter-Glo viability, Loewe Volume; type: cell-based; settings: in combination with Cpd. No. 15, seven days, mantle cell lymphoma cell line GRANTA519 (ACC 342)
Procedure: (§1) Mantle cell lymphoma (MCL) and diffuse large B-cell lymphoma (DLBCL) cell line cultures in log-linear growth rate were treated with combinations of Cpd. No. 15 and combination partners according to a co-treatment model. […] No. 15 and the combination partner. […] Each combination was tested in quadruplicate wells. The final concentration of DMSO (vehicle) in the assay was 0.1% v/v. Fifty microliters of cell line suspension were directly dispensed to the assay-ready plates with an automated multichannel dispenser on to 384-well assay-ready plates. Assay plates were incubated for seven days unless otherwise indicated in a humidified atmosphere of 5% CO2 at 37° C. Quantification of the effect of single agents or combinations on cell viability was performed through measurement of cellular adenosine triphosphate (ATP) using a CellTiter-Glo® (Promega, Madison, WI) Luminescent Cell Viability Assay. Luminescence was detected using a SpectraMax M5 microplate reader (Molecular Devices, Sunnyvale, CA). Concentration response plots were generated in GraphPad Prism version 7.0 for Windows, GraphPad Software, (La Jolla, California) and curves fitted to a four-parameter logistic model with variable slope. Percent of inhibition was calculated at each treatment concentration.

[3] = test system: JEKO1; experiment: as above; type: cell-based; settings: in combination with Cpd. No. 15, seven days, mantle cell lymphoma cell line JEKO1 (CRL-3006)
Procedure: as §1

[4] = test system: JVM2; experiment: as above; type: cell-based; settings: in combination with Cpd. No. 15, seven days, mantle cell lymphoma cell line JVM2 (CRL-3002)
Procedure: as §1

[5] = test system: REC1; experiment: as above; type: cell-based; settings: in combination with Cpd. No. 15, seven days, mantle cell lymphoma cell line REC1 (CRL-3004)
Procedure: as §1

[6] = test system: Z138; experiment: as above; type: cell-based; settings: in combination with Cpd. No. 15, seven days, mantle cell lymphoma cell line Z138 (CRL-3001)
Procedure: as §1

[7] = test system: MAVER1; experiment: as above; type: cell-based; settings: in combination with Cpd. No. 15, seven days, mantle cell lymphoma cell line MAVER1 (CRL-3008)
Procedure: as §1

[8] = test system: MINO; experiment: as above; type: cell-based; settings: in combination with Cpd. No. 15, seven days, mantle cell lymphoma cell line MINO (CRL-3000)
Procedure: as §1

SMILES | Combination effect with Cpd. No. 15 (Loewe Volume class), Farage [1] | Combination effect with Cpd. No. 15 (Loewe Volume class), HT [1] | Combination effect with Cpd. No. 15 (Loewe Volume class), OCILY7 [1] | Combination effect with Cpd. No. 15 (Loewe Volume class), SUDHL4 [1] | Combination effect with Cpd. No. 15 (Loewe Volume class), WILL2 [1] | Combination effect (Loewe Volume) GRANTA519 [2] | Combination effect (Loewe Volume) JEKO1 [3] | Combination effect (Loewe Volume) JVM2 [4] | Combination effect (Loewe Volume) REC1 [5] | Combination effect (Loewe Volume) Z138 [6] | Combination effect (Loewe Volume) MAVER1 [7] | Combination effect (Loewe Volume) MINO [8]
CN(C)CCCOc1ccc(-c2ccc3ncc4c(c3c2)n(C2CCOCC2)c(=O)n4C)cn1 [AZD0156] | Synergy (VLoewe>1: synergy) | Synergy (VLoewe>1: synergy) | Synergy (VLoewe>1: synergy) | Synergy (VLoewe>1: synergy) | No Effect |  |  |  |  |  |  | 
C=CCn1c(=O)c2cnc(Nc3ccc(N4CCN(C)CC4)cc3)nc2n1-c1cccc(C(C)(C)O)n1 [AZD1775] | Synergy (VLoewe>1: synergy) | Additivity (between 1 and −1: additivity) | Additivity (between 1 and −1: additivity) | Synergy (VLoewe>1: synergy) | Synergy (VLoewe>1: synergy) |  |  |  |  |  |  | 
C[C@@H]1COCCN1c1cc(C2([S@](C)(=N)=O)CC2)nc(-c2cc[nH]c3nccc2-3)n1 [AZD6738] | Synergy (VLoewe>1: synergy) | Additivity (between 1 and −1: additivity) | Additivity (between 1 and −1: additivity) | Synergy (VLoewe>1: synergy) | No Effect |  |  |  |  |  |  | 
NC(=O)Nc1cc(-c2cccc(F)c2)sc1C(=O)N[C@H]1CCCNC1 [AZD7762] | Synergy (VLoewe>1: synergy) | Additivity (between 1 and −1: additivity) | Additivity (between 1 and −1: additivity) | Synergy (VLoewe>1: synergy) | Additivity (between 1 and −1: additivity) |  |  |  |  |  |  | 
COc1c(OCCCN2CCOCC2)ccc2c1N=C(NC(=O)c1cnc(N)nc1)N1CCN=C21 [Copanlisib, copanlisib] |  |  |  |  |  | Additivity (between 1 and −1: additivity) | Additivity (between 1 and −1: additivity) | Additivity (between 1 and −1: additivity) | Additivity (between 1 and −1: additivity) | Additivity (between 1 and −1: additivity) | Synergy (VLoewe>1: synergy) | Additivity (between 1 and −1: additivity)
COc1cccc2c1C(=O)c1c(O)c3c(c(O)c1C2=O)C[C@@](O)(C(=O)CO)C[C@@H]3O[C@H]1C[C@H](N)[C@H](O)[C@H](C)O1 [Doxorubicin (H)] | Synergy (VLoewe>1: synergy) | Synergy (VLoewe>1: synergy) | Additivity (between 1 and −1: additivity) | Synergy (VLoewe>1: synergy) | Synergy (VLoewe>1: synergy) |  |  |  |  |  |  | 
CC[C@H](Nc1ncnc2[nH]cnc12)c1nc2cccc(F)c2c(=O)n1-c1ccccc1 [Idelalisib] | Synergy (VLoewe>1: synergy) | Synergy (VLoewe>1: synergy) | Additivity (between 1 and −1: additivity) | Synergy (VLoewe>1: synergy) |  |  |  |  |  |  |  | 
NC1(c2ccc(-c3nc4ccn5c(=O)[nH]nc5c4cc3-c3ccccc3)cc2)CCC1 [MK2206] | Synergy (VLoewe>1: synergy) | Synergy (VLoewe>1: synergy) | Synergy (VLoewe>1: synergy) | Synergy (VLoewe>1: synergy) | Synergy (VLoewe>1: synergy) |  |  |  |  |  |  | 
NC(=O)c1cccc2cn(-c3ccc([C@@H]4CCCNC4)cc3)nc12 [Niraparib] | Synergy (VLoewe>1: synergy) | Synergy (VLoewe>1: synergy) | Additivity (between 1 and −1: additivity) | Synergy (VLoewe>1: synergy) | Synergy (VLoewe>1: synergy) |  |  |  |  |  |  | 
O=C(c1cc(Cc2n[nH]c(=O)c3ccccc23)ccc1F)N1CCN(C(=O)C2CC2)CC1 [Olaparib] | Synergy (VLoewe>1: synergy) | Synergy (VLoewe>1: synergy) | Additivity (between 1 and −1: additivity) | Synergy (VLoewe>1: synergy) | Synergy (VLoewe>1: synergy) |  |  |  |  |  |  | 
CC(=O)c1c(C)c2cnc(Nc3ccc(N4CCNCC4)cn3)nc2n(C2CCCC2)c1=O [Palbociclib, palbociclib] |  |  |  |  |  | Additivity (between 1 and −1: additivity) | Synergy (VLoewe>1: synergy) | Additivity (between 1 and −1: additivity) | Additivity (between 1 and −1: additivity) | Additivity (between 1 and −1: additivity) | Synergy (VLoewe>1: synergy) | Additivity (between 1 and −1: additivity)
COc1cc(Nc2ncc(F)c(Nc3ccc4c(n3)NC(=O)C(C)(C)O4)n2)cc(OC)c1OC [Tamatinib] | Synergy (VLoewe>1: synergy) | Additivity (between 1 and −1: additivity) | Additivity (between 1 and −1: additivity) | Synergy (VLoewe>1: synergy) | Additivity (between 1 and −1: additivity) |  |  |  |  |  |  | 
CC(=O)Nc1cccc(-n2c(=O)n(C3CC3)c(=O)c3c(Nc4ccc(I)cc4F)n(C)c(=O)c(C)c32)c1 [Trametinib] | Synergy (VLoewe>1: synergy) | Synergy (VLoewe>1: synergy) | Synergy (VLoewe>1: synergy) | Synergy (VLoewe>1: synergy) |  |  |  |  |  |  |  | 
